Common to all, as to assay type: in vivo, human
In test [1] the test system is elderly insomnia patients. In words: Psychomotor performance (total reaction time, mean reaction time). The note with it: 2 mg per night, 3 weeks. On the procedure:
The effect of a controlled release formulation of melatonin on psychomotor performance (total reaction time, TRT, and Mean reaction time, MRT) in 40 elderly insomnia patients (aged 60.8 (SD 0.8) years) were studied. The subjects were treated for 2 weeks with placebo (baseline) and 3 weeks with 2 mg per night of controlled release melatonin. On the last two days of treatment psychomotor tests were taken by all patients to assess daytime vigilance.

Test [2] deals with elderly insomnia patients. In words: Subjectively assessed quality of sleep (140 mm visual analog scale), randomized double-blind crossover study. As to conditions: controlled release 2 mg, 4 weeks, higher = better sleep. On the procedure:
The effect of a controlled release formulation of melatonin on subjectively assessed sleep quality in 17 elderly insomnia patients (aged 66.9 (SD 5.4) years) were studied in a randomized, double-blind, crossover study. Basal excretion of the main melatonin metabolite 6-sulfatoxymentonin in urine over the nocturnal period (8 p.m.-8 a.m.) was measured and the subjects were treated for 1 week with placebo to establish baseline characteristics followed by a two-period crossover design (4 weeks on either melatonin controlled release 2 mg or placebo) separated by a washout period (1 week). On the last week of the baseline and treatment periods patients were asked to assess the quality of their sleep the previous night by ticking a 140 mm visual analog scale. The distance (in mm) of the patient mark from the left hand side of the scale was measured and a higher number indicated better sleep. The difference from placebo values in the patient evaluation of restful sleep was calculated for smoking and non-smoking patients. There were no significant differences in the amount of nocturnal 6-sulfatoxymentonin excreted by smokers and non-smokers in the study population (3.5+1.5 vs. 6.3+5 μg 6-sulfatoxymentonin, respectively). […] No difference was found in the response to placebo between the smokers and non-smokers.

A further test relates to elderly volunteers. In words: Memory recall (Rivermead story test), crossover study. The note with it: for Difference in recalls under melatonin and placebo / Mean number of recalled elements of the story: 2 hours after intake; for Mean number of recalled elements of the story: 2 mg controlled release. As to the method:
The effect of melatonin (2 mg controlled release formulation) and placebo on memory recall (Rivermead story test) were assessed in 16 elderly volunteers (>55 years; aged 59 (SD 3.2) years). In a randomised, double-blind, crossover study the subjects were given a tablet of placebo in the evening to establish baseline and then a tablet of melatonin or placebo in a random order in the evening with one week with no treatment in between treatments. The Rivermead test was given to the patients at 2 and 12.5 hours after the administration of the tablet. […] Memory efficiency is increased with controlled release 2 mg melatonin for both recalls (immediate and delayed) in the subjects who were smoking or ceased smoking within the last 6 months prior to the study than non-smokers compared to baseline or crossover placebo.

In test [3] the test system is mixed age insomnia patients. Briefly: Leeds Sleep Evaluation Questionnaire sleep quality, responder rate. The note with it: 1 mg per night, 3 weeks. As to the method: The effects of a controlled release formulation of melatonin on subjectively assessed sleep quality were studied in a mixed age insomnia patients population (aged 20-80 years). The subjects were treated for 1 week with placebo to establish baseline characteristics and then for 3 weeks with 1 mg per night of controlled release melatonin or placebo. On the last three days of the baseline and treatment periods patients were asked to assess the quality of their sleep the previous night using the Leeds Sleep Evaluation Questionnaire (Parrott, A. C. and I. Hindmarch (1980). “The Leeds sleep evaluation questionnaire in psychopharmacological investigations—a review.” Psychopharmacology (Berl) 71(2): 173-9) which comprises two 100 mm visual analog scales relating to sleep quality. The distance of the patient mark from the right hand side in mm was measured and the mean answer of the two questions was averaged across the 3 consecutive nights. A responder was defined as a patient showing improvement of 10 mm or more on the averaged value. […] There was no difference in responder rate to placebo between the smokers (46%, n=13) and non-smokers groups (44% n=53, p=0.89, chi-square test).

As for `COc1ccc2[nH]cc(CCNC(C)=O)c2c1` [melatonin], the results for the “improvement in psychomotor skills, MRT” value in test [1] (non-smokers) and in test [1] (smokers) were 0.00062 s and -0.03607 s, respectively. Besides, the “improvement in psychomotor skills, TRT” value in test [1] (non-smokers) is -5.21 ms; in test [1] (smokers), -38.95 ms. Also, the “Mean change (in mm) in perceived quality of sleep with melatonin over placebo” value is reported as −2.8 mm in test [2] (Non smokers (n = 4)) and 15 mm in test [2] (Smokers (n = 10)). For the same compound, in the test with elderly volunteers (2 mg controlled release formulation, single administration), the “memory tasks in the first hours of administration over the respective placebo values” is listed as “improvement of memory tasks”. Besides, the “Difference in recalls under melatonin and placebo” value with elderly volunteers (Non-smokers (n = 12)) was −2.41; in the test with elderly volunteers (Smokers (n = 4)), 3.5. Besides, the figures for the “Mean number of recalled elements of the story” value with elderly volunteers (Non-smokers (n = 12)) and in the test on elderly volunteers (Smokers (n = 4)) were 9.8 and 14.8, respectively. Also, the “rate of responders (improvement of 10 mm or more)” value in test [3] (non-smokers, n=43) was 40%; in test [3] (smokers, n=16) it was 62%.

The values are drawn from patent US9119846B2, “Method and composition for enhancing cognition in alzheimer's patients” (NEURIM PHARMACEUTICALS (1991) LTD., priority 2003, dated 2015).
